Measurements: patent US7384971B2, “Phytochemicals for the treatment of cervical dysplasia” (BioResponse L.L.C., priority 1999, dated 2008)

How the values were obtained:
[1] = system: women with mastalgia; settings: cited from earlier work
[2] = system: women with endometriosis; settings: endometriosis therapy; cited from earlier work
[3] = system: 2-hydroxy estrogen metabolism; settings: women; cited from earlier work
[4] = system: recurrent laryngeal papillomatosis and cervical dysplasia; settings: dietary supplementation; cited from earlier work
[5] = system: person with chronic recurring breast pain (mastalgia); assay: Case study: processed DIM for chronic recurring breast pain (Example 5); type: in vivo, human; parameters: key to Typical Breast Pain Score / Typical Breast Soreness Score: 0 = none; 1 = mild; 2 = moderate; 3 = significant; 4 = severe; settings: After DIM, 225 mg per day, one month
Excerpt: The purpose of this study was to determine whether dietary supplementation with the cruicferous phytochemical, Diindolylmethane (DIM) is effective in relieving the pain of this chronic condition. patient one is a person referred for evaluation of perimenopausal symptoms of chronic recurring breast pain. They had been troubled by breast pain for many years with recent worsening in their symptoms. They had undergone a vaginal hysterectomy due to excessive and painful menstrual periods. Since their ovaries were left intact, they have received no Hormonal Replacement Therapy (HRT). During the last 4 years they experienced a monthly cycle of breast pain for about one week of each month. The breast pain was bilateral, associated with significant tenderness to touch, and a discomfort described as “heaviness or swelling.” A trial of a women's health supplement containing Don Quai provided no relief. Evaluation included a baseline morning urine sample and close assessment of their symptoms of breast pain during the ensuing month. Following this, bioavailable DIM was begun as a supplement at 225 mg per day together with increased dietary fiber. […] A second urine sample was obtained after one month on the DIM supplement.

[6] = system: 2-hydroxy and 16-hydroxy estrogen metabolites; assay: Urinary estrogen metabolites, Elisa based assay (Estratest); type: in vivo, human; settings: After DIM, 225 mg per day
Protocol: Evaluation included a baseline morning urine sample and close assessment of their symptoms of breast pain during the ensuing month. Following this, bioavailable DIM was begun as a supplement at 225 mg per day together with increased dietary fiber. […] A second urine sample was obtained after one month on the DIM supplement.
The urine samples were subsequently analyzed for their levels of 2-hydroxy and 16-hydroxy estrogen metabolites, using an Elisa based assay (Estratest, Immunacare, Inc., Bethlehem, Pa.).

[7] = system: person with severe endometriosis; assay: Case study: processed DIM for endometriosis pain (Example 8); type: in vivo, human
Excerpt: patient two is a slender and athletic person who sought alternatives in their management of severe endometriosis. Their symptoms of recurrent mid-cycle and menstrually associated pain have been diagnosed as due to endometriosis based on pelvic laparoscopy. This procedure confirmed aggressive endometriosis with ectopic endometrial implants removed from the pelvis and associated with intestinal serosal spread. A history of 2 years of intense pelvic pain at mid-cycle and during menstrual flow was reported prior to the laparoscopy. Their parent gives a history of painful menstrual periods […]. They went on to develop ovarian cancer requiring radical surgery […]. A maternal aunt developed cervical cancer requiring surgery. […] Like the patient, a younger sibling has been troubled with painful menstrual periods and pelvic pain leading to laparoscopy and the diagnosis of endometriosis.
Following the patient's laparoscopy, one menstrual period was still associated with significant pain. Supplementation with bioavailable processed DIM was begun approximately 6 weeks following the laparoscopy. Initial supplementation with bioavailable processed DIM provided 300 mg/day for one month which was reduced to 150 mg/day thereafter. […] The patient continued DIM supplementation for about one year.

[8] = system: serum Ca-125 antigen; assay: Serial serum Ca-125 antigen levels in endometriosis patient; type: in vivo, human
Excerpt: Diagnosis of the endometriosis and reduction in pain severity correlated with serial levels of serum Ca-125 antigen. Ca-125 is a serum marker with documented usefulness in monitoring the activity of endometriosis in a given patient (Pittaway D E and Fayez J A, 1986, “The use of CA-125 in the diagnosis and management of endometriosis”, Fertil Steril 46:790).

[9] = system: MCF7 breast cancer cells; settings: tested in the absence of estrogen; cited from earlier work
[10] = system: colon cancer cells; settings: cited from earlier work
[11] = system: non-cancerous colon cells; settings: cited from earlier work
[12] = system: carcinogen-induced breast cancer; settings: oral; cited from earlier work
[13] = Follow up Visit #3, Use of DIM YES
[14] = Follow-up Visit #1, Use of DIM YES
[15] = Follow-up Visit #2, Use of DIM YES

Structure (SMILES): CC(=O)O[C@]1(C(C)=O)CC[C@H]2[C@@H]3C[C@H](C)C4=CC(=O)CC[C@]4(C)[C@H]3CC[C@@]21C [medroxyprogesterone acetate]
- Relief of mastalgia versus placebo ([1]; controlled trial): no better than placebo

Structure (SMILES): C#C[C@]1(O)CC[C@H]2[C@@H]3CCC4=Cc5oncc5C[C@]4(C)[C@H]3CC[C@@]21C [Danazol]
- Response rate in mastalgia ([1]; severe breast pain): 70%
- Women experiencing adverse side effects [2]: up to 80%

Structure (SMILES): OCc1c[nH]c2ccccc12 [I3C, Indole-3-carbinol]
- Effect on 2-hydroxy estrogen metabolism [3]: increase 2-hydroxy estrogen metabolism
- Clinical outcome [4]: some clinical improvement

Structure (SMILES): c1ccc2c(Cc3c[nH]c4ccccc34)c[nH]c2c1 [DIM, 3,3′-Diindolylmethane]
- Typical Breast Soreness Score (in words) [5]: Absent
- Typical Breast Pain Score (in words) ([5]; one patient): Absent
- Typical Breast Pain Score ([5]; score out of 4): 0/4
- Typical Breast Soreness Score ([5]; score out of 4): 0/4
- 2-Hydroxy estrone level, urinary ([6]; morning urine after one month): 26.4 ng/ml/mg Creatinine
- 2-Hydroxy to 16-Hyroxy estrone ratio ([6]; urine after one month): 5.08
- 16-Hydroxy estrone level, urinary ([6]; urine after one month): 5.1 ng/ml/mg Creatinine
- Total urinary estrone metabolites ([6]; urine after one month): 31.3 ng/ml/mg Creatinine
- Pain Level [7, 13]: Improved
- Pain Level [7, 14]: Improved
- Pain Level [7, 15]: Improved
- Comfort of menstrual periods / need for analgesics ([7]; supplementation for about one year): more comfortable, no longer requiring analgesics
- Ca-125 Antigen [8, 13]: 34.0
- Ca-125 Antigen [8, 14]: 26.4
- Ca-125 Antigen [8, 15]: 23.2
- Effect on cell growth [9]: promoted growth
- Effect on cell growth [10]: selective growth inhibitory activity
- Growth inhibitory activity [11]: not observed
- Effect on tumor growth [12]: impede the growth
